In PubChem BioAssay AID2483 (Sanford-Burnham Center for Chemical Genomics, 2010):
Activity calls are given as the source filed them. How the calls were made is not given here.

What follows are molecules tested on TNFa-induced NF-kB reporter inhibition, human cells (assay: TNFa-triggered NF-kB activation inhibitors, SAR follow-up, cell-based, set 2 (AID 2483)).

Row | IC50 | SMILES
1 | > 20 µM (inactive) | CC(C)n1c(SCCCc2ccccc2)nc2c1c(=O)[nH]c(=O)n2C
2 | 1.32 µM | Cn1c(=O)[nH]c(=O)c2c1nc([N+](=O)[O-])n2Cc1ccccc1
3 | 16.9 µM | CCC(=O)Nc1nc2ccccc2n1Cc1ccccc1Cl
4 | > 20 µM (inactive) | C/C=C/Cn1c(SCc2ccccc2)nc2c1c(=O)[nH]c(=O)n2C
5 | 16.8 µM | C=CCn1c(SCCCc2ccccc2)nc2c1c(=O)[nH]c(=O)n2C
6 | > 20 µM (inactive) | C/C=C/Cn1c(SCc2ccc(Cl)cc2)nc2c1c(=O)[nH]c(=O)n2C
7 | 5.69 µM | CCCCn1c(CN2CCN(c3cccc(Cl)c3)CC2)nc2c1c(=O)n(C)c(=O)n2C
8 | > 20 µM (inactive) | CCCCCn1c(SCCc2ccccc2)nc2c1c(=O)[nH]c(=O)n2C
9 | 13.1 µM | CCCCn1c(SCC(=O)Nc2nnc(CC)s2)nc2c1c(=O)n(C)c(=O)n2C
10 | > 20 µM (inactive) | O=C(Nc1nc2ccccc2n1Cc1ccc(Cl)cc1)c1ccco1
11 | > 20 µM (inactive) | CCCCn1c(SCC(=O)c2ccccc2)nc2c1c(=O)[nH]c(=O)n2C
12 | 3.31 µM | CCCn1c(SCC(=O)Nc2nc3c(s2)CCCC3)nc2c1c(=O)n(C)c(=O)n2C
13 | > 20 µM (inactive) | CC(C)Sc1nc2c(c(=O)[nH]c(=O)n2C)n1Cc1ccccc1
14 | 8.49 µM | C/C=C/Cn1c(SCCCc2ccccc2)nc2c1c(=O)[nH]c(=O)n2C
15 | > 20 µM (inactive) | Cc1ccc(S(=O)(=O)n2c(N)nc3ccccc32)cc1
16 | 5.21 µM | C/C(Cl)=C\Cn1c(NCCc2ccccc2)nc2c1c(=O)n(C)c(=O)n2C
17 | > 20 µM (inactive) | CCCn1c(SCCc2ccccc2)nc2c1c(=O)[nH]c(=O)n2C
18 | > 20 µM (inactive) | COCCn1c(SCCCc2ccccc2)nc2c1c(=O)[nH]c(=O)n2C
